# In US20240099951A1, “HAIR GROWTH STIMULANT” (ADJUVANT HOLDINGS CO., LTD., priority 2020, published 2024):
# Columns and labels:
# [1] = tested on: skin samples derived from C57BL/6N mouse dorsal body hair skin grafted onto Balb/c nu/nu mice; assay: Evaluation of hair growth activity: drug applied on skin samples transplanted in mice; format: in vivo
# Description: C57BL/6N mice (male) and Balb/c nu/nu mice (female) were purchased from Japan SLC, Inc. (Japan) and bred, and were thereafter made available for the following testing. Note that the testing and breeding of animals complied with pertinent laws, regulations, ordinances, and guidelines, and was performed with the approval of the Experimental Ethics Review Board of the Institute of Physical and Chemical Research. The following reagents were respectively prepared. • Comparative Example 1: 60% aqueous ethanol solution • Comparative Example 2: 5% minoxidil solution • Comparative Example 3: 3% minoxidil solution • Comparative Example 4: 1% minoxidil solution • Working Example 1: 3% phytosphingosine solution • Working Example 2: 1% phytosphingosine solution To collect dorsal body hair skin in the form of anagen stage VI skin 12 to 14 days following depilation, C57BL/6N mice of age 7 to 8 weeks were depilated at locations where dorsal body hair skin was intended to be collected, and were bred for 12 to 14 days. The depilated C57BL/6N mice were thereafter euthanized by cervical dislocation, following which a suitable amount of dorsal body hair skin was collected from the locations at which dorsal body hair skin was intended to be collected. The collected skin was immersed in DMEM culture medium (hereinafter “DMEM 10”) which contained 10 mM HEPES, 10% fetal bovine serum, and 1% penicillin/streptomycin solution. The collected dorsal body hair skin was grasped with bent-nose curved tweezers and was treated by immersion for 10 seconds in a sterilizing solution. Sterilization treatment was performed by carrying out treatment with 7% povidone iodine solution two times, treatment with PBS (−) three times, and treatment with DMEM 10 two times, in this order, with fresh solutions respectively being used each time. Following sterilization treatment, these were immersed in clean DMEM 10. Following sterilization treatment, the dorsal body hair skin was cut into pieces and formed into blocks. The transparent connective tissue which adhered to the cutaneous muscle layer of the skin was excised therefrom using curved scissors, and hair groups were cut into rectangular strips in parallel fashion with respect to the direction of the wave of the hair. At this time, these were cut into blocks such that there were 6 rows of hair follicles along the long axis, adjustment having been carried out so that there were 5 rows of hair follicles along the short axis. The skin samples derived from dorsal body hair skin that were prepared in accordance with the foregoing were grafted onto Balb/c nu/nu mice of age 4 to 6 weeks. More specifically, mice were anesthetized in the usual way using isoflurane gas. The dorsal area of the mice was then disinfected using 7% povidone iodine solution, following which the mice were made to assume a naturally recumbent posture. In addition, a Mani ophthalmic knife (Mani, Inc.; Japan) was used to pierce the skin at the dorsal area of the mice, the grafts which were formed extending from the epidermal layer of the skin to the subdermal layer. The skin samples derived from dorsal body hair skin were inserted into the grafts formed thereat in such fashion as to cause the hair groups to be directed toward the body surface side of the grafts. Skin sample transplanted depth was adjusted so as to cause the top portion of the hair group to be in a state such that it was exposed at the top portion of the graft. To protect the grafts, Nurseban (registered trademark) (Sunplanet Co., Ltd.; Japan) and surgical tape (3M Japan Limited; Japan) were then used as protective tape to cover the grafts at which the skin samples derived from dorsal body hair skin had been transplanted. The protective tape was removed 5 to 7 days following transplantation, and survival of the transplanted skin samples derived from dorsal body hair skin was determined by visual inspection or digital microscopy (Keyence Corporation; Japan), after which follow-up observation was carried out. […]
# [2] = tested on: hair groups derived from C57BL/6N dorsal body hair skin transplanted in Balb/c nu/nu mice; assay: Evaluation of hair-diameter-increasing activity (hair shafts grown after third cycle of Exemplary Test 1); format: in vivo
# Description: Dorsal body hair skin was collected from C57BL/6N mice (SLC) of age 7 to 8 weeks in accordance with a procedure similar to that at Exemplary Test 1, above, the drug being applied after the hair groups derived from the dorsal body hair skin that had been fabricated were transplanted in Balb/c nu/nu mice (SLC) of age 4 to 6 weeks. Testing and breeding of animals complied with pertinent laws, regulations, ordinances, and guidelines, and was performed with the approval of the Experimental Ethics Review Board of the Institute of Physical and Chemical Research. The following three solutions were used during testing. • 60% aqueous ethanol solution • 5% minoxidil solution • 1% phytosphingosine solution Measurement of increase in hair diameter was carried out using hair shafts which had grown following completion of the third cycle at Exemplary Test 1. Of the hair shafts that were collected, two zigzag hairs were used. Three locations were selected in regions where diameter was large in the central portions thereof using a square 100 μm on a side. Measurement of selected regions was carried out at five locations. Hairs as they existed following application of the drug were used for measurement of hair shaft diameter.
# [3] = 1% minoxidil solution (Comparative Example 4), second hair cycle
# [4] = 1% minoxidil solution (Comparative Example 4), third hair cycle
# [5] = 1% minoxidil solution, second hair cycle vs first hair cycle
# [6] = 1% minoxidil solution, third hair cycle vs first hair cycle
# [7] = 3% minoxidil solution (Comparative Example 3), second hair cycle
# [8] = 3% minoxidil solution (Comparative Example 3), third hair cycle
# [9] = 3% minoxidil solution, second hair cycle vs first hair cycle
# [10] = 3% minoxidil solution, third hair cycle vs first hair cycle
# [11] = 5% minoxidil solution (Comparative Example 2), second hair cycle
# [12] = 5% minoxidil solution (Comparative Example 2), third hair cycle
# [13] = 5% minoxidil solution, second hair cycle vs first hair cycle
# [14] = 5% minoxidil solution, third hair cycle vs first hair cycle
smiles,measurement,setting,value
Nc1cc(N2CCCCC2)nc(N)[n+]1[O-] [minoxidil],Hair shaft elongation rate,[1]; [3],0.54 ± 0.08 mm/day
same,Maximum hair shaft length,[1]; [3],5.2 ± 0.3 mm
same,Hair shaft elongation rate,[1]; [4],0.44 ± 0.02 mm/day
same,Maximum hair shaft length,[1]; [4],4.9 ± 0.4 mm
same,"Hair shaft elongation rate, percent change relative to reference data",[1]; [5],123.85%
same,"Maximum hair shaft length, percent change relative to reference data",[1]; [5],118.07%
same,"Hair shaft elongation rate, percent change relative to reference data",[1]; [6],100.24%
same,"Maximum hair shaft length, percent change relative to reference data",[1]; [6],111.10%
same,Hair shaft elongation rate,[1]; [7],0.48 ± 0.07 mm/day
same,Maximum hair shaft length,[1]; [7],5.2 ± 0.2 mm
same,Hair shaft elongation rate,[1]; [8],0.53 ± 0.03 mm/day
same,Maximum hair shaft length,[1]; [8],5.3 ± 0.3 mm
same,"Hair shaft elongation rate, percent change relative to reference data",[1]; [9],126.50%
same,"Maximum hair shaft length, percent change relative to reference data",[1]; [9],116.80%
same,"Hair shaft elongation rate, percent change relative to reference data",[1]; [10],139.36%
same,"Maximum hair shaft length, percent change relative to reference data",[1]; [10],120.09%
same,Hair shaft elongation rate,[1]; [11],0.51 ± 0.03 mm/day
same,Maximum hair shaft length,[1]; [11],6.0 ± 0.1 mm
same,Hair shaft elongation rate,[1]; [12],0.55 ± 0.07 mm/day
same,Maximum hair shaft length,[1]; [12],5.8 ± 0.1 mm
same,"Hair shaft elongation rate, percent change relative to reference data",[1]; [13],116.25%
same,"Maximum hair shaft length, percent change relative to reference data",[1]; [13],115.74%
same,"Hair shaft elongation rate, percent change relative to reference data",[1]; [14],126.11%
same,"Maximum hair shaft length, percent change relative to reference data",[1]; [14],112.62%
same,Hair shaft diameter,"[2]; 5% minoxidil solution applied, hair shafts after third cycle",18.28 μm
same,hair shaft diameter as percent of control,[2]; 5% minoxidil solution vs 60% aqueous ethanol solution,115%
